The source of these data is PMC9096754 (Scientific Reports, 2022).

Experiment [1] concerns the target T1, human AA2AR (Homo sapiens, UniProt P29274).
T1 construct: host or cells: RBL-2H3
The experiment is described as follows: Adenosine A2A receptor (AA2AR) calcium flux assay in RBL-2H3 cells (Eurofins Cerep 86-0011P-2409AN). The experiment is classed as cell-based. The following applies: top 30 μM, active if IC50 lower than 30 μM. (A change in cytosolic calcium serves as a functional read-out for many receptors and channels.)

The target in experiment [2] is T2, Human recombinant 15-ALOX (Homo sapiens, UniProt P16050).
T2 construct: purchased Eurofins (Cerep), fee-for-service 199017; host or cells: E. coli
T2 sequence (P16050 1-662): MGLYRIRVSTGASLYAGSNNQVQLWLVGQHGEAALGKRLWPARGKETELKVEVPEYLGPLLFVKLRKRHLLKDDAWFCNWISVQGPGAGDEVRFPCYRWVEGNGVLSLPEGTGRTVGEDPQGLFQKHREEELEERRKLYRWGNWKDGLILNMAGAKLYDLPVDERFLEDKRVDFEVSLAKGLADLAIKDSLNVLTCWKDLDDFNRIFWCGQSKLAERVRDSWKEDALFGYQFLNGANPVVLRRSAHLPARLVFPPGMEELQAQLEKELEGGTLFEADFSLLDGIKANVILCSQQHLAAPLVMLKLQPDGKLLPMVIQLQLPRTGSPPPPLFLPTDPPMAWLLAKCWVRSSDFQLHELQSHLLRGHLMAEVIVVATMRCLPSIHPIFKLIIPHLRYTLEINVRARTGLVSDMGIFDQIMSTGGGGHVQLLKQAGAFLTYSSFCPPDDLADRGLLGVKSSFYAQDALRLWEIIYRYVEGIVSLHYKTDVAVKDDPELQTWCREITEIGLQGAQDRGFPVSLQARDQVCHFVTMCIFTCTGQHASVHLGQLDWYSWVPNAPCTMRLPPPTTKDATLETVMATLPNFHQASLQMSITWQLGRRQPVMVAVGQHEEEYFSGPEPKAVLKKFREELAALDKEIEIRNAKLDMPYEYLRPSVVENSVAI
The experiment is described as follows: Arachidonate 15-lipoxygenase (15-ALOX) enzymatic assay (Eurofins Cerep 199017). The experiment is classed as biochemical.

In experiment [3] the target is T3, human ADORA3 (Homo sapiens, UniProt P0DMS8).
T3 construct: host or cells: CHO
T3 sequence (P0DMS8 1-318): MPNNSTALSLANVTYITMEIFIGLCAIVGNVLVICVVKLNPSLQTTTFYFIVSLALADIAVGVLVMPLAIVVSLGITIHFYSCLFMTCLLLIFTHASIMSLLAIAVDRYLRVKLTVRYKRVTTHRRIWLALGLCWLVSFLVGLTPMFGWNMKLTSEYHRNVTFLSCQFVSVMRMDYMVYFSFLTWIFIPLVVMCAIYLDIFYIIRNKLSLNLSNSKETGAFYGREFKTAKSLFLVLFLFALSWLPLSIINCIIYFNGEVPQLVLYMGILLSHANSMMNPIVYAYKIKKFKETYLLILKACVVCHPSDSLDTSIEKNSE
Description: Adenosine A3 receptor (ADORA3) functional cAMP HTRF assay in CHO cells (Eurofins Cerep G107). The experiment is classed as cell-based. The note with it: 8 concentrations, top 30 μM, active if IC50 lower than 30 μM. Here is the method: In vitro characterization was performed on a fee-for-service basis at Eurofins (www.eurofins.com) if the assay was commercially available. […]
tested at 8 concentrations (100 µM a s the highest concentration and dilution factor in a log-scale) in triplicate for dose-response curve and IC50 determination. (Eurofins Cerep assay ID: […]
(§1) formation of 5’AMP from cAMP using human recombinant enzyme e xpressed in Sf9 cells.
(§2) The test compound was added to a buffer containing 40 mM Tris/HCl (pH 7. 4), 8 mM MgCl2, and 0. 2 µM [3H]cAMP + cAMP. Thereafter, enzyme (about 0. 8 U) wa s added and the mixture incubated for 20 minutes at 25 °C. SPA beads were added and the mixture was maintained at 25 °C for 30 minutes under shaking. [3H]5’AMP was quantified via scintillation counting. The […]
used as standard inhibitory reference compound. […]
Functional activity of ADORA3 was evaluated in CHO cells transfected with human […]
(100 nM IB-MECA) in a first assay, and in a second one with […] (10 nM IB -ME CA) for 20 minutes at 37 °C, and formation of cAMP was determined by homogeneous time resolved fluorescence (HTRF) at lex=337 nm and lem=620 and 665 nm using a microplate reader (Envison, Perkin Elmer). The cAMP concentration was determined by dividing the […]
signal measured at 665 nm by that measured at 620 nm (ratio). […]
(TR-FRET usually uses a lanthanide donor and a delayed reading to cut background.)

Experiment [4] has as its target T4, human PDE10A2 (Homo sapiens, UniProt Q9Y233).
T4 construct: purchased Eurofins (Cerep), fee-for-service 4080; host or cells: Sf9
The experiment is described as follows: Phosphodiesterase 10A2 (PDE10A2) enzymatic assay (Eurofins Cerep 4080). The format is biochemical. The protocol: In vitro characterization was performed on a fee-for-service basis at Eurofins (www.eurofins.com) if the assay was commercially available.
Additional details on the conduct of in vitro assays are included in Supplementary Information S1.
The IC50 value and the standard error of the mean (SEM) were determined by a non-linear, least squares regression analysis using GraphPad Prism Version 9.0.2 for Macintosh (GraphPad Software, San Diego, California USA, https://www.graphpad.com). The dose–response curve was plotted using RStudio Team (2020), v. 1.3.1073 (RStudio, PBC, Boston, MA, http://www.rstudio.com/). […]
as §1, §2
used as standard inhibitory reference compound. A primary screening in duplicated was carried out (30 µM) to determine the target activity.
(100 µM highest concentration and dilution factor in a log-scale) in triplicate for dose-respons e

The target of experiment [5] is T5, PI3 Kinase (p110b/p85a) (Homo sapiens, UniProt P42338).
T5 construct: purchased Eurofins (Cerep), fee-for-service 14-603KP
T5 sequence (P42338 whole entry): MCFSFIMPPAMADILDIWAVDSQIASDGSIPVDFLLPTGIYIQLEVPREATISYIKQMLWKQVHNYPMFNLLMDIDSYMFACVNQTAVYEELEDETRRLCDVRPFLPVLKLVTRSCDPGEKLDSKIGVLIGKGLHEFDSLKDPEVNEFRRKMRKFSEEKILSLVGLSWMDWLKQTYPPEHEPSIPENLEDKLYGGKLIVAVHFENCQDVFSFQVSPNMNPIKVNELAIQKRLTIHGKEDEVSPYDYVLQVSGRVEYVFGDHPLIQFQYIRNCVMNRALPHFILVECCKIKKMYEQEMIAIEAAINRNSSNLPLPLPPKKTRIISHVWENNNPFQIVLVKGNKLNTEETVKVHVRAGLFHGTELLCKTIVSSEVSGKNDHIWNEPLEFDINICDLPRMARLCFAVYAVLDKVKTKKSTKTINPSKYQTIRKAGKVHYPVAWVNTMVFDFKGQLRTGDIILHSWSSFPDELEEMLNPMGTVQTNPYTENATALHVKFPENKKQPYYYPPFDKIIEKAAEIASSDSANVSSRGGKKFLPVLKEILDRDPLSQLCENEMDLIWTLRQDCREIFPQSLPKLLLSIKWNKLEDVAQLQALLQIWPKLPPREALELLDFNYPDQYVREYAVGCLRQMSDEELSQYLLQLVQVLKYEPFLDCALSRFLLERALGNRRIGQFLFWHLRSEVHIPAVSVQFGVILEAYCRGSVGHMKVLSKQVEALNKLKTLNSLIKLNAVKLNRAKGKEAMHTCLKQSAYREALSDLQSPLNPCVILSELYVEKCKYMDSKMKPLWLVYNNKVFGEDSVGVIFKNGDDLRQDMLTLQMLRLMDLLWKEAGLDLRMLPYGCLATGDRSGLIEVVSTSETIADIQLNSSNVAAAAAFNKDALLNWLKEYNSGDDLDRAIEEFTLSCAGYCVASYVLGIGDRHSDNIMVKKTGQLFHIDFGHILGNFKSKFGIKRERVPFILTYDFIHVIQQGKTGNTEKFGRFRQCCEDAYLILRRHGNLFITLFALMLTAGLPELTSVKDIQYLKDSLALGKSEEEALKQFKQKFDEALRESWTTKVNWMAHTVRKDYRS
T5 sequence (P27986 whole entry partner): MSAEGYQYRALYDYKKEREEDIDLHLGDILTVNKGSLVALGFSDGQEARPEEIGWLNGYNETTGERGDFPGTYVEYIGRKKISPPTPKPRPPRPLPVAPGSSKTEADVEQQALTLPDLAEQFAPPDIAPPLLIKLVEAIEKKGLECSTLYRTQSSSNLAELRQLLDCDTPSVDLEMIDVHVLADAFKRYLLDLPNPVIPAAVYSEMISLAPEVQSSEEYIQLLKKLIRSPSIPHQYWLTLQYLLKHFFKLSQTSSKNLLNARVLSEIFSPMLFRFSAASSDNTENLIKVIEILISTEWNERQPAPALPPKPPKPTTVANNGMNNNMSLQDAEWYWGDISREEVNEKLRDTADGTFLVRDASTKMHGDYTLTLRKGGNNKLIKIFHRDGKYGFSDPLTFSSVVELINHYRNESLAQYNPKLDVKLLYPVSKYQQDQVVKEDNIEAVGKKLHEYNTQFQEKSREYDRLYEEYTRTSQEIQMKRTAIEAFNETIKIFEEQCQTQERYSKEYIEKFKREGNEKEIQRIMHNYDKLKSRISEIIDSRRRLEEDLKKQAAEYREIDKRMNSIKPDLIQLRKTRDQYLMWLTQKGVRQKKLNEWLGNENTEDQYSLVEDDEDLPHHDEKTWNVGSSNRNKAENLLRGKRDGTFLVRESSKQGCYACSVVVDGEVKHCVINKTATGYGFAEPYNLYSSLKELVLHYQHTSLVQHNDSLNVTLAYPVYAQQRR
Description: PI3 Kinase (p110b/p85a) enzymatic HTRF assay (Eurofins Cerep 14-603KP). The experiment is classed as biochemical. The note with it: for remaining activity at 30 µM: % kinase activity remaining. The protocol:
Additional details on the conduct of in vitro assays are included in Supplementary Information S1. […]
PI3 Kinase (p110b/p85a). The enzyme was incubated in assay buffer containing 10 µM
phosphatidylinositol -4, 5-bispho sphate and Mg/A TP (200 µM). The reaction was initiated by
the addition of the Mg/ATP mixture. Afte r incubation for 30 minutes at 25 °C, the reaction was
terminated by the addition of a solution containing EDTA and biotinylated
phosphatidylinositol - 3,4,5-trisphosphate. Detection buffer containing europium -labelled anti -
GST monoclonal antibody, GST -tagged GRP1 PH domain and streptavidin -allophycocyanin
was added. Following, the plate was read in time-resolved fluorescence mode and the
homogeneous time -resolved fluorescence (HTRF) signal was determined according to the
formula HTRF = 10000 x (Em665 nm/Em6 20 nm). PI-103 was used as reference compound.
A primary screening in duplicated was carried out (30 µM) to determine the target activity. The
result was e xpres sed as a percentage of the positiv e control (i.e. % kinase activity remaining),
and the mean of the replicates was calculated. (Eurofins Cerep assay ID: 14 -603KP) […]
A primary screening in duplicated was carried out (30 µM) to determine the target

Experiment [6] concerns the target PKN2 (human) (Homo sapiens, UniProt Q16513). The experiment is described as follows: biochemical.
Experiment [7] addresses T6, Mouse recombinant iNOS (Mus musculus, UniProt P29477).
T6 construct: purchased Eurofins (Cerep), fee-for-service 3185; host or cells: Escherichia coli
The experiment is described as follows: Inducible NOS (iNOS) enzymatic assay (Eurofins Cerep 3185). The experiment is classed as biochemical. The protocol: In vitro characterization was performed on a fee-for-service basis at Eurofins (www.eurofins.com) if the assay was commercially available. […] DTT) to remove unbound ligand and to reduce nonspecific binding. […] The analysis was carried on in polypropylene 384-well plates incubated at 25 °C with shaking for 1 h in a final volume of 20 μL. […] The kinase concentration in the eluates was measured by qPCR. […] The mixture was incubated for 90 minutes at 37 °C, followed by the addition of Griess reagent. The binding was determined by photometry at 545 nm. […] was used as reference compound. […] A primary screening in duplicated was carried out (30 μM) to determine the target activity. […] The reaction was initiated by the addition of the Mg/ATP mixture. Afte r incubation for 30 minutes at 25 °C, the reaction was terminated by the addition of a solution containing EDTA and biotinylated phosphatidylinositol - 3,4,5-trisphosphate. Detection buffer containing europium -labelled anti - GST monoclonal antibody, GST -tagged GRP1 PH domain and streptavidin -allophycocyanin was added. Following, the plate was read in time-resolved fluorescence mode and the homogeneous time -resolved fluorescence (HTRF) signal was determined according to the formula HTRF = 10000 x (Em665 nm/Em6 20 nm). PI-103 was used as reference compound. […] The binding was determined by Spectrofluorimetric quantitation of rhodamine 123 (Excitation: 485 nm, Emission: 535 nm). 2 -TEDC was used as a reference compound. A primary screening in duplicated was carried out (30 μM) to determine the target S4

Experiment [8] concerns the target T7, Epidermal growth factor receptor (EGFR) (Homo sapiens, UniProt P00533).
T7 construct: purchased Eurofins (Cerep), fee-for-service 14-531KP
The experiment is described as follows: Epidermal Growth Factor Receptor (EGFR) enzymatic radiometric assay (Eurofins Cerep 14-531KP). The experiment is classed as biochemical.

The subject of experiment [9] is PDE10A. Set-up: method as in printed at the sentence. The note with it: PDE10A inhibitor, papaverine analog; ref not given; cited from earlier work.
Setting [10] is: tested at 30 μM, active if IC50 lower than 30 μM.

Like-named read-outs stand apart in the source and are kept apart here.

Chain of PKN2 (human) (Q16513 whole entry): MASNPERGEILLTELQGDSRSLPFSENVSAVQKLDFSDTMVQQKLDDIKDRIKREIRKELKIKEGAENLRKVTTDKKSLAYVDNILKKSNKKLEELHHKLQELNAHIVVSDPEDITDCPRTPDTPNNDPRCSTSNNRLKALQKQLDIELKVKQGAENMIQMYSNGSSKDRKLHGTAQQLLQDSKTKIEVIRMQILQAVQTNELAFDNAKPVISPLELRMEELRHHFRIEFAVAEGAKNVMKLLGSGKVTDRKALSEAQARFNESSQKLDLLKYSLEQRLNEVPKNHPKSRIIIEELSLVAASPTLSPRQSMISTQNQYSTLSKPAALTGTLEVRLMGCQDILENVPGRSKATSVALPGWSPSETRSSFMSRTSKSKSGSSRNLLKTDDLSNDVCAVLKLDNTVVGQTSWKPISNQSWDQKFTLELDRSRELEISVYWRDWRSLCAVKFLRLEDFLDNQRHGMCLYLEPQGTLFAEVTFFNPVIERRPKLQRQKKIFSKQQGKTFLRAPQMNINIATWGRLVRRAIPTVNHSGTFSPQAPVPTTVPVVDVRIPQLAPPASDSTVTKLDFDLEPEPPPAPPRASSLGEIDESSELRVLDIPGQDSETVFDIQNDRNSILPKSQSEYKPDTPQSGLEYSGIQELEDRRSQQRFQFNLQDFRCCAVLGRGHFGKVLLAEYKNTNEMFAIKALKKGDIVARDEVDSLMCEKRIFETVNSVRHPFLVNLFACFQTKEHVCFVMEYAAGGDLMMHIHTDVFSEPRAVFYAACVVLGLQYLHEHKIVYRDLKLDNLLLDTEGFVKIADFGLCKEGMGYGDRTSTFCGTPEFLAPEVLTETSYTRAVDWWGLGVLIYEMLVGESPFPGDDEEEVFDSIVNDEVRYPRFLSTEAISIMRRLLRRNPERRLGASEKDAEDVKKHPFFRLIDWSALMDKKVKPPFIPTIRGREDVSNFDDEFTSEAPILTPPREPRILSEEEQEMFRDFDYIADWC
T4 sequence (Q9Y233 267-1055): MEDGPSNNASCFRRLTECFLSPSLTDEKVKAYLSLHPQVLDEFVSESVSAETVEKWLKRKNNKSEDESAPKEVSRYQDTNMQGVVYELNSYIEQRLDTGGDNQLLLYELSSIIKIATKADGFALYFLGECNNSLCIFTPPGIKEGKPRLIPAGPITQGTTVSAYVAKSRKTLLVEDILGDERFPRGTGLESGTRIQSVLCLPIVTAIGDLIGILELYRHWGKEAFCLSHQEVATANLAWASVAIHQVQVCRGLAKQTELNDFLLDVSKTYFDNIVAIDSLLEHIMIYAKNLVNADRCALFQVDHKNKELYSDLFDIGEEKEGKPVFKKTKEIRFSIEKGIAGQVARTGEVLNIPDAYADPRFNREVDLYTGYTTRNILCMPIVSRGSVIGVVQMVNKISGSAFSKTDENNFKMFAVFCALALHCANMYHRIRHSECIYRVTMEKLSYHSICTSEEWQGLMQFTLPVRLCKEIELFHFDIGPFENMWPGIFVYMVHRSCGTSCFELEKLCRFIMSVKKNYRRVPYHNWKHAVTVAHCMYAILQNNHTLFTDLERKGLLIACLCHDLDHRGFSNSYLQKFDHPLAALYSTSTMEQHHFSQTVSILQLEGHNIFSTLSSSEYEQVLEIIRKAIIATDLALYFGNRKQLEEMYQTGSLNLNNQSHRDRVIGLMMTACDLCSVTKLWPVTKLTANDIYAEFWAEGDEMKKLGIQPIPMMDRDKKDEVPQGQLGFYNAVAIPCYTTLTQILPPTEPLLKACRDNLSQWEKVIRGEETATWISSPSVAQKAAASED
T7 sequence (P00533 25-1210): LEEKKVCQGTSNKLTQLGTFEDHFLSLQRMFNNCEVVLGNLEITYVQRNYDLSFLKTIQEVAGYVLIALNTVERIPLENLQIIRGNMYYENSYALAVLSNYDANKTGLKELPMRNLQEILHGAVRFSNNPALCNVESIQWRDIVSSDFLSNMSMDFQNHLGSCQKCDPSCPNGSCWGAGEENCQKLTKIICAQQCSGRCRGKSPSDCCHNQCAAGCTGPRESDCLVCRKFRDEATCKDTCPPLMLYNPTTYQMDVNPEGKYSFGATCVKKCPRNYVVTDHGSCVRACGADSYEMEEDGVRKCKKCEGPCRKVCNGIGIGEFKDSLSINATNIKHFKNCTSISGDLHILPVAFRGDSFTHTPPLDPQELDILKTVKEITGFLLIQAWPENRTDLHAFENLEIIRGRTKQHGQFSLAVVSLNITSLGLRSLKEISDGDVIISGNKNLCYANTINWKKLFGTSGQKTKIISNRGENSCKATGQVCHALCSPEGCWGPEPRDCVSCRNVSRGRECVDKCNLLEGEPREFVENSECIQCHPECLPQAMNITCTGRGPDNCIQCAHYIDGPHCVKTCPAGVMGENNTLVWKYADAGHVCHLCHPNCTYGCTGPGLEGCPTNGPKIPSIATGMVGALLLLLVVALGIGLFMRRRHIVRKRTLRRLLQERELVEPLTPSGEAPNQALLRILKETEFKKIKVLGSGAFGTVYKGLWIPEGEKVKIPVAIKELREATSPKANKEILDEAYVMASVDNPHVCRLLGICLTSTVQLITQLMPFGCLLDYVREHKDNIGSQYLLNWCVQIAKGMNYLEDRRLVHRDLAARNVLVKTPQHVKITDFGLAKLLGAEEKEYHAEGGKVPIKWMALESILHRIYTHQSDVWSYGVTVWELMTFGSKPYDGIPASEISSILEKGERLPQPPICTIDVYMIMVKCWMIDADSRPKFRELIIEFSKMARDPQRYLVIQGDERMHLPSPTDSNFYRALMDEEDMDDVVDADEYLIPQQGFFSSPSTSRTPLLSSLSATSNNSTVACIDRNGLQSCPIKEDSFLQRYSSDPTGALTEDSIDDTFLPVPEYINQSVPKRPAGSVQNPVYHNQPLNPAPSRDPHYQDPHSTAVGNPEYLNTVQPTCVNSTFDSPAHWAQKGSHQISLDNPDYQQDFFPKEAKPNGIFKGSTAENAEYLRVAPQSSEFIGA

As to `C[C@@H]1CCN(C(=O)CC#N)C[C@@H]1N(C)c1ncnc2[nH]ccc12` [Tofacitinib], the “IC50 (μM), AA2AR, agonistic effect” value in experiment [1] (agonistic effect (footnote c)) is listed as “Inactive”. Moreover, the “IC50 (μM), 15-ALOX” value in experiment [2] (30 μM screen, follow-up 8 concentrations top 100 μM, triplicate, active if IC50 lower than 30 μM) is given as “Inactive”. Besides, the inhibition at 30 µM stood at 27% in experiment [2] (mean of n=2, read-out: % inhibition (mean) activity, 15-LOX-1); 19.3% in experiment [2] (replicate 1, read-out: % inhibition of control activity (1st), 15-LOX-1); 34% in experiment [2] (replicate 2, read-out: % inhibition of control activity (2nd), 15-LOX-1). The “IC50 (μM), ADORA3, antagonistic and agonistic effect” value in experiment [3] is listed as “Inactive”.
Take `CCS(=O)(=O)N1CC(CC#N)(n2cc(-c3ncnc4[nH]ccc34)cn2)C1` [Baricitinib]: the inhibition at 30 µM in experiment [4] (mean of n=2, read-out: % inhibition (mean) activity, PDE10A2) is 44.8%; in experiment [4] (replicate 1, read-out: % inhibition of control activity (1st), PDE10A2), 45.5%; in [4] (replicate 2, read-out: % inhibition of control activity (2nd), PDE10A2), 44%; in experiment [5] (30 µM, mean of n=2, read-out: % inhibition (mean) activity, PI3Kbeta (p110b/p85a)) it was 4%; in [6] (read-out: % inhibition (mean) activity, PRK2) it was 98%; in experiment [7] (mean of n=2, read-out: % inhibition (mean) activity, iNOS), 5%. The inhibition at 30 µM in [7] (replicate 1, read-out: % inhibition of control activity (1st), iNOS) amounted to 6%; in experiment [7] (replicate 2, read-out: % inhibition of control activity (2nd), iNOS) it was 4%; in experiment [8] (30 µM, mean of n=2), 21%. In addition, the IC50 in experiment [4] (dose–response, 8 concentrations, top 100 μM, triplicate, mean ± SEM) came out at 28 ± 2 µM. For the same compound, in experiment [4] (estimated from experimental IC50, Cheng and Prusoff), the Ki is 6.1 µM. In addition, the remaining activity at 30 µM in experiment [5] (30 µM, replicate 1, read-out: % inhibition of control activity (1st), measured as % of positive control activity, PI3Kbeta (p110b/p85a)) was 92%; in [5] (30 µM, replicate 2, read-out: % inhibition of control activity (2nd), measured as % of positive control activity, PI3Kbeta (p110b/p85a)) it was 99%; in [6] (read-out: % inhibition of control activity (1st), measured as % of positive control activity, PRK2), 1%; in experiment [6] (read-out: % inhibition of control activity (2nd), measured as % of positive control activity, PRK2), 2%. In addition, the “IC50 (μM), PI3 Kinase (p110b/p85a)” value in [5] (setting [10]) is given as “Inactive”. Also, the “IC50 (μM), AA2AR, antagonistic effect” value in experiment [1] (antagonistic effect) is given as “Inactive”. For the same compound, the “IC50 (μM), iNOS” value in [7] (setting [10]) is “Inactive”. Also, in experiment [8] (setting [10]), the “IC50 (μM), EGFR” value was “Inactive”.
As to `COc1cc2ncnc(N3CC[C@@H](Oc4cnc5ccccc5n4)C3)c2cc1OC` [PQ-10], the IC50 in experiment [9] was 6 µM.

The IC50 is the concentration that gives 50% inhibition. By Ki is commonly meant the dissociation constant of the complex between target and ligand, obtained from inhibition or displacement.
